Laboratory results taken from US9078446B2, “Use of N-(tetrazol-4-yl)- or N-(triazol-3-yl)arylcarboxamides or their salts for controlling unwanted plants in areas of transgenic crop plants being tolerant to HPPD inhibitor herbicides” (BAYER INTELLECTUAL PROPERTY GMBH, priority 2011, dated 2015).

What was measured:
Assay type in all cases: in vivo
[1] = test system: cotton plants expressing FMP 27 and FMP 37; experiment: Tolerance to HPPD inhibitors of cotton plants expressing tolerant HPPD enzymes; settings: T1 cotton plants; one week after application
Excerpt: (§1) Genes coding for the selected HPPD were obtained from a member of the group of organisms consisting of Blepharisma japonicum and Kordia algicida and cloned into an appropriate binary vector allowing the integration of DNA into the cotton genome, under the control of the CaMV35S promoter. For the respective cloning procedures, see WO2011076882 (PCT/EP2010/070567), Example 11; for Blepharisma japonicum (FMP37) and WO2011076889 (PCT/EP2010/070575), Example 11 for Kordia algicida (FMP27).
Between the sequence corresponding to the promoter and the sequence coding for the HPPD a DNA sequence coding for a transit peptide to the chloroplast was inserted, in order to add at the N-terminal extremity of the protein a target signal to allow the localization of the HPPD protein into the plant chloroplast. Cotton transformation was achieved as described in Example 12 of WO2011076882 (PCT/EP2010/070567) for Blepharisma japonicum (FMP37) and WO2011076889 (PCT/EP2010/070575) for Kordia algicida (FMP27). Seeds from T0 events showing tolerance to tembotrione were harvested.
T1 Cotton seeds were transferred to single pots and grown under standard cultivation conditions, see WO2011076882 (PCT/EP2010/070567) for Blepharisma japonicum (FMP37) and WO2011076889 (PCT/EP2010/070575) for Kordia algicida (FMP27).
At least 4 weeks later, plants will be sprayed with several N-(tetrazol-4-yl)- or N-(triazol-3-yl)arylcarboxamides as defined above.

[2] = test system: transgenic tobacco plants expressing mutant Pseudomonas fluorescens HPPD G336W (PfHPPD-G336W); experiment: Symptoms due to herbicide application on transgenic tobacco plants (damage classes 0-3); settings: PfHPPD-G336W line 646; 25 g Al/ha; one week after application
Excerpt: (§2) Genes coding for the selected HPPD were obtained from a member of the group of organisms consisting of Avena sativa, Pseudomonas fluorescens mutant G336W, Blepharisma japonicum and Kordia algicida and cloned into the binary vector pBin19 allowing the integration of DNA into the tobacco genome, under the control of the CaMV35S promoter. For the cloning procedures, see A2 above for Avena sativa, see B2 above for Pseudomonas fluorescens, mutant G336W, see PCT/EP2010/070567 (published as WO 2011/076882, Example 5; for Blepharisma japonicum (FMP37) and see PCT/EP2010/070575, Example 5 for Kordia algicida (FMP27). Between the sequence corresponding to the promoter and the sequence coding for the HPPD a DNA sequence coding for a transit peptide to the chloroplast was inserted, in order to add at the N-terminal extremity of the protein a target signal to allow the localization of the HPPD protein into the plant chloroplast.
(§3) Seeds harvested from TO transformants will be put on standard soil for germination. Three weeks later plantlets (T1) will be transferred to single pots and grown under standard cultivation conditions (PCT/EP2010/070575, published as WO 2011/076889). Two weeks later, plants were sprayed with several N-(tetrazol-4-yl)- or N-(triazol-3-yl)arylcarboxamides as defined above.
(§4) Tables F1 to F5: Evaluation of the Symptoms Observed Due to the Application of the Herbicides on Transgenic Tobacco Plants, Expressing the Mutant Pseudomonas fluorescens HPPD G336W, the Avena HPPD (AvHPPD), the HPPD from Kordia algicida FMP27 or the HPPD from Blepharisma japonicum (FMP37), Compared to Non-Tranformed Tobacco Plants (“Wt”).
(§5) The herbicides (with “g Al/ha” meaning “g active ingredient/ha”) were applied on 8 to 10 plants originated from 1 to 3 independent transgenic events per transgene.
(§6) The symptoms were evaluated and classified as following: • 3=Very strong damage • 2=Strong damage • 1=Light and transient damage • 0=No damage

[3] = test system: transgenic tobacco plants expressing Avena HPPD (AvHPPD); experiment: as above; settings: 25 g Al/ha, one week after application
Excerpt: as §2, §3, §4, §5, §6

[4] = test system: transgenic tobacco plants expressing HPPD from Kordia algicida FMP27; experiment: as above; settings: 25 g Al/ha, one week after application
Excerpt: as §2, §3, §4, §5, §6

[5] = test system: transgenic tobacco plants expressing HPPD from Blepharisma japonicum (FMP37); experiment: as above; settings: 25 g Al/ha, one week after application
Excerpt: as §2, §3, §4, §5, §6

[6] = test system: non-transformed tobacco plants (Wt); experiment: Symptoms due to herbicide application on tobacco plants (damage classes 0-3); settings: 25 g Al/ha, one week after application
Excerpt: as §3, §4, §5, §6

[7] = test system: soybean plants expressing Pseudomonas fluorescens G336W mutant, FMP 27 and FMP 37; experiment: Tolerance to HPPD inhibitors of soybean plants expressing tolerant HPPD enzymes; settings: T1 soybean plants; one week after application
Excerpt: as §1, with “the soybean” for “the cotton”, “Example 9;” for “Example 11;”, “Example 9” for “Example 11”
Between the sequence corresponding to the promoter and the sequence coding for the HPPD a DNA sequence coding for a transit peptide to the chloroplast was inserted, in order to add at the N-terminal extremity of the protein a target signal to allow the localization of the HPPD protein into the plant chloroplast. By using the vectors “pFCO112” (Blepharisma japonicum, WO2011076882), pFCO116 (Korida algicida, WO2011076889), and pFCO117” (see Example B2, above), soybean transformation was achieved as described in Example 10 of WO2011076882 (PCT/EP2010/070567) for Blepharisma japonicum (FMP37) and WO2011076889 (PCT/EP2010/070575) for Kordia algicida (FMP27). Seeds from TO events showing tolerance to tembotrione were harvested.
T1 Soybean seeds were transferred to single pots and grown under standard cultivation conditions, see WO2011076882.
Two weeks later, plants will be sprayed with several N-(tetrazol-4-yl)- or N-(triazol-3-yl)arylcarboxamides as defined above.

[8] = test system: transgenic tobacco plants expressing tolerant HPPD enzymes; experiment: Tolerance of tobacco plants expressing tolerant HPPD enzymes (all transgenes)
Excerpt: as §2, §3, §4, §5, §6

## CCn1nnnc1NC(=O)c1ccc(C(F)(F)F)c(S(C)(=O)=O)c1C [Compound 5-148]
[1]
  tolerance of transgenic plants compared to the wild-type cotton plants: superior tolerance
[2]
  number of plants with Damage 0 (No damage): 0
  number of plants with Damage 1 (Light and transient damage): 3
  number of plants with Damage 2 (Strong damage): 2
  number of plants with Damage 3 (Very strong damage): 4
[3]; AvHPPD line 656
  number of plants with Damage 0 (No damage): 2
  number of plants with Damage 1 (Light and transient damage): 1
  number of plants with Damage 2 (Strong damage): 3
  number of plants with Damage 3 (Very strong damage): 4
[3]; AvHPPD line 659
  number of plants with Damage 0 (No damage): 3
  number of plants with Damage 1 (Light and transient damage): 1
  number of plants with Damage 2 (Strong damage): 0
  number of plants with Damage 3 (Very strong damage): 6
[3]; AvHPPD line 699
  number of plants with Damage 0 (No damage): 1
  number of plants with Damage 1 (Light and transient damage): 1
  number of plants with Damage 2 (Strong damage): 1
  number of plants with Damage 3 (Very strong damage): 7
[4]; FMP27 line 733
  number of plants with Damage 0 (No damage): 3
  number of plants with Damage 1 (Light and transient damage): 1
  number of plants with Damage 2 (Strong damage): 4
  number of plants with Damage 3 (Very strong damage): 2
[4]; FMP27 line 734
  number of plants with Damage 0 (No damage): 4
  number of plants with Damage 1 (Light and transient damage): 2
  number of plants with Damage 2 (Strong damage): 0
  number of plants with Damage 3 (Very strong damage): 4
[4]; FMP27 line 735
  number of plants with Damage 0 (No damage): 0
  number of plants with Damage 1 (Light and transient damage): 4
  number of plants with Damage 2 (Strong damage): 4
  number of plants with Damage 3 (Very strong damage): 2
[5]; FMP37 line 749
  number of plants with Damage 0 (No damage): 2
  number of plants with Damage 1 (Light and transient damage): 3
  number of plants with Damage 2 (Strong damage): 2
  number of plants with Damage 3 (Very strong damage): 3
[5]; FMP37 line 754
  number of plants with Damage 0 (No damage): 2
  number of plants with Damage 1 (Light and transient damage): 1
  number of plants with Damage 2 (Strong damage): 5
  number of plants with Damage 3 (Very strong damage): 2
[5]; FMP37 line 795
  number of plants with Damage 0 (No damage): 1
  number of plants with Damage 1 (Light and transient damage): 0
  number of plants with Damage 2 (Strong damage): 6
  number of plants with Damage 3 (Very strong damage): 3
[6]
  number of plants with Damage 0 (No damage): 0
  number of plants with Damage 1 (Light and transient damage): 0
  number of plants with Damage 2 (Strong damage): 0
  number of plants with Damage 3 (Very strong damage): 10
[7]
  tolerance of transgenic plants compared to the wild-type soybean plants: superior tolerance
[8]; T1 plants sprayed, evaluated one week after application
  tolerance of the transgenic tobacco plants (symptoms due to application of the herbicide): good tolerance
[8]; all tested independent lines, agronomically relevant dose
  sensitivity of transgenic tobacco plants compared to wild type (wt) plants: less sensitive
